This note sets out measurements from US20030181449A1 (priority 2003, published 2003).

The target of test [1] is T1, NMDA receptor glycine site (Rattus norvegicus, UniProt P35439).
T1 construct: The rat brain membranes used in the experiments were obtained from Analytical Biological Services Inc; tissue Analytical Biological Services Inc; host or cells: rat brain membranes (cerebral cortex and hippocampus, male Sprague Dawley rats)
The test is described as follows: Test A: Inhibition of binding of [3H]-MDL105,519 to brain membranes. The text has this: Test A: Inhibition of Binding of [^3H]-MDL105,519:
Binding of compounds to the NMDA receptor glycine site may be assessed by measuring the ability of test compounds to inhibit the binding of tritiated MDL105,519 to brain membranes bearing the receptor.
Briefly, fresh brain tissue including cerebral cortex and hippocampus from male Sprague Dawley rats was homogenized in 0.32 M sucrose and centrifuged at low speed to separate cellular membranes from other cellular components. The membranes were then washed 3 times using deionized water, followed by treatment with 0.04% Triton X-100. Finally, membranes were washed six times in 50 mM Tris citrate buffer, pH 7.4, and frozen at −80° C. until use.
[^3H]MDL105,519 (72 Ci/mmol) was purchased from Amersham. Cold MDL105,519 was purchased from Sigma/RBI. […] On the day of the experiment, brain membranes were thawed at room temperature and suspended in 50 mM tris acetate buffer, pH 7.4 (“TAB”). Seventy-five micro grams per milliliter protein (by using the BioRad dye) were used for competition binding. The experiments were carried out using 96-well plates. […] Non specific binding was determined by using 100 μM of unlabeled MDL105,519. […] After incubation, unbound [^3H]MDL105,519 was removed by filtration onto GF/B Unifilter plates using a Packard harvester. Filters were washed four times with ice cold TAB (total of 1.2 mL buffer). The plates were dried overnight at room temperature and bound radioactivity was measured on a Packard TopCount after the addition of 45 μL per well of the MICROSCINT O.
Human Brain Membranes: Human brain membranes were obtained from Analytical Biological Services Inc., and assays were performed as described for rat membranes.
Data analysis: Data was analyzed using a Microsoft Excel spreadsheet and GraphPad Prizm software and potency of compounds is expressed as the Ki (nM).

In test [2] the test system is CCI rats (thermal hyperalgesia). The test is described as follows: Test C: Neuropathic pain model (Chronic Constriction Injury), thermal hyperalgesia, paw withdrawal latency. Format: in vivo, rat. Particulars: oral; for Test C (% Inh.): percent decrease in hyperalgesia: at the MED; for Test C MED (minimum effective dose): three times daily for 5 days. The text has this:
Test C: Neuropathic Pain Model (Chronic Constriction Injury):
The anti-hyperalgesic properties of a compound may be tested with the Chronic Constriction Injury (“CCI”) model. The test is a model for neuropathic pain associated with nerve injuries that can arise directly from trauma and compression, or indirectly from a wide range of diseases such as infection, cancer, metabolic conditions, toxins, nutritional deficiencies, immunological dysfunction, and musculoskeletal changes. In the model a unilateral peripheral hyperalgesia is produced in rats by nerve ligation (G. J. Bennett, et al., Pain 33, 87-107 (1988)).
Procedurally, Sprague-Dawley rats (250-350 g) are anesthetized with sodium pentobarbital and the common sciatic nerve is exposed at the level of the mid thigh by blunt dissection through the biceps femoris. A section of nerve (about 7 mm), proximal to the sciatic trifucation, is freed of tissue and ligated at four positions with chromic gut suture. The suture is tied with about 1 mm spacing between ligatures. The incision is closed in layers and the animals are allowed to recuperate. Thermal hyperalgesia is measured using a paw-withdrawal test (K. Hargreaves, et al., Pain 32, 77-88 (1988)). To perform the test, animals are habituated on an elevated glass floor. A radiant heat source is aimed at the mid-plantar hindpaw (sciatic nerve territory) through the glass floor with a 20 second cut-off used to prevent injury to the skin. The latencies for the withdrawal reflex in both hind paws are recorded.
Injured paws with ligated nerves show shorter paw withdrawal latencies compared to the uninjured or sham operated paws. Responses to test compounds are evaluated at different times after oral administration to determine the onset and duration of compound effect. When performing the test, groups of CCI rats receive either vehicle or the test compound orally three times daily for 5 days. Paw withdrawal latencies are measured each day 10 min before and 2 or 3 hr. after the first daily dose. Compound efficacy is expressed as mean percentage decrease of hyperalgesia compared to that of vehicle-treated animals, calculated as follows:
(Mean of vehicle group−Mean of compound group)×100/(Mean of vehicle group).
Data analysis was performed by the multiple means comparison test (Dunnett's test) and results are expressed and compound potencies are expressed as the MED (minimum effective dose), in mg/Kg/day, that yields a percent (%) decrease in hyperalgesia that is statistically significant.

The subject of test [3] is formalin-induced nociceptive behaviors in rats. The test is described as follows: Test B: Formalin test (formalin-induced paw flinches). Format: in vivo, rat. Particulars: dose 200 (unit not given), dosed three hours prior to formalin. The source says: The Formalin test is an assay that assesses the capacity of a compound to inhibit formalin-induced nociceptive behaviors in rats (D. Dubuisson, et al., Pain 4, 161-174 (1977); H. Wheeler-Aceto et al., Psychopharmacology 104, 3544 (1991); T. J. Coderre, et al., Pain 54, 43-50 (1993)). In the test, two distinctive phases of formalin-induced behaviors are observed. A first phase response, caused by acute nociception to the noxious chemical (formalin) injected into the paw, occurs between zero and five minutes. A quiescent period of 5 to 15 min post injection follows. After the quiescent period a second phase response, caused by sensitization of the central neurons in the dorsal horn, occurs after 15 minutes and lasts up to 60 minutes. Sensitization of the central neurons in the spine augments a noxious afferent input and causes a stronger pain barrage to be transmitted to the brain. Therefore, inhibition of the second phase response indicates a central mechanism of drug action.
The procedure for the formalin test is as follows: male rats are placed in a plexiglass chamber and observed for 30-45 min. to observe their baseline activity. Animals are either pretreated with vehicle or with different doses of a test compound. Animals are dosed with vehicle or test compound three hours prior to injection of 0.05 mL of sterile 1% formalin under the dorsal skin of a hind paw. The number of paw flinches (responses) during the first phase (0-5 min.) and the second phase (20-35 min.) are scored and recorded. Flinch response is compared with the mean score of a saline control group and calculated as percentage inhibition. The ED50 is the dose of compound which produces 50% inhibition of nociceptive response in the first or second phase response. First phase responses may be inhibited by compounds that act peripherally and by compounds that act centrally. Second phase response are inhibited by centrally active compounds.
Student's t-test was used for statistical analysis to determine the significance of compound effects. Data are reported as a dose that yielded a % inhibition of a response.

Setting [4] is: inhibition of 1.2 nM [3H]MDL105,519 binding, brain membranes (rat or human not given).

Where “and” joins values, the source holds several entries; their conditions need not be identical. Equal values may be shown once. Read-outs that look alike come from different tables or passages of the source.

Take `O=C(Nc1ccccc1)Nc1cccc(Cn2nc(O)c3[nH]c4cc(Cl)ccc4c(=O)c3c2=O)c1` [Ex. 18, 7-chloro-4-hydroxy-2-(3-phenylaminocarboxamide)phenylmethyl-1,2,5,10-tetrahydropyridazino[4,5-b]quinoline-1,10-dione]: the affinity in test [1] (setting [4]), expressed as Ki, was 79.9 nM.

In turn, `CC(=O)Nc1ccc(Cn2nc(O)c3[nH]c4cc(Cl)ccc4c(=O)c3c2=O)cc1` [Ex. 30, 7-Chloro-4-hydroxy-2-[4-(methylcarbonyl-amino)-benzyl]-1,2,5,10-tetrahydropyridazino[4,5-b]quinoline-1,10-dione] gave a Ki in test [1] (setting [4]) of 98 nM. As to `CNC(=O)c1cccc(Cn2nc(O)c3[nH]c4cc(Cl)ccc4c(=O)c3c2=O)c1` [Ex. 25, 7-Chloro-4-hydroxy-2-[3-(methylaminocarbonyl)-benzyl]-1,2,5,10-tetrahydropyridazino[4,5-b]quinoline-1,10-dione], the Ki in test [1] (setting [4]) was 126 nM. The Ki values of the last two compounds are within 1.5-fold of each other.

Consider `O=c1c2ccc(Cl)cc2[nH]c2c(O)nn(Cc3ccc(C#CCO)cc3)c(=O)c12` [Ex. 21], for which the affinity in test [1] (setting [4]), expressed as Ki, was 1 nM. Consider `CN(C)C(=O)Nc1ccc(Cn2nc(O)c3[nH]c4cc(Cl)ccc4c(=O)c3c2=O)cc1` [Ex. 11, 7-chlorohydroxy-2-(4-dimethylaminocarboxamide)phenylmethyl-1,2,5,10-tetrahydropyridazino[4,5-b]quinoline-1,10-dione], for which, in test [2], the “Test C (% Inh.): percent decrease in hyperalgesia” value turned out to be 80% and the “Test C MED (minimum effective dose)” value came out at 15 mg/kg/day. `CON(C)C(=O)c1cccc(Cn2nc(O)c3[nH]c4cc(Cl)ccc4c(=O)c3c2=O)c1`: in test [1] (setting [4]), the Ki was 65 nM. On the same count and under the same terms, for `O=C(Nc1ccc(Cn2nc(O)c3[nH]c4cc(Cl)ccc4c(=O)c3c2=O)cc1)N1CCCC1` [Ex. 13, 7-chloro-4-hydroxy-2-(4pyrrolidinylcarboxamide)phenylmethyl-1,2,5,10-tetrahydropyridazino[4,5-b]quinoline-1,10-dione] the value was 67.5 nM. Same read-out and setting: for `Cc1cc(Cn2nc(O)c3[nH]c4cc(Cl)ccc4c(=O)c3c2=O)ccc1O` [Ex. 6, 7-Chloro-4-hydroxy-2-(4-hydroxy-3-methyl-benzyl)-1,2,5,10-tetrahydropyridazino[4,5-b]quinoline-1,10-dione] the value was 67.9 nM and 62.5 nM; for `COC(=O)c1c(OC)cc(Cn2nc(O)c3[nH]c4cc(Cl)ccc4c(=O)c3c2=O)cc1OC` [Ex. 8, 7-Chloro-2-(4-(2,6-dimethoxy)methylbenzoate)4hydroxy-1,2,5,10-tetrahydropyridazino[4,5-b]quinoline-1,10-dione], 35 nM; for `CC(C)OC(=O)c1ccc(Cn2nc(O)c3[nH]c4cc(Cl)ccc4c(=O)c3c2=O)cc1` [Ex. 9, 7-Chloro-4-hydroxy-2-(4-iso-propoxycarbonylbenzyl)-1,2,5,10-tetrahydropyridazino[4,5-b]quinoline-1,10-dione], 91 nM. The same measure, in the same setting: in the case of `CC(C)NC(=O)c1ccc(Cn2nc(O)c3[nH]c4cc(Cl)ccc4c(=O)c3c2=O)cc1` [EX. 31, 7-chloro-4-hydroxy-2-(4-isopropylcarboxamide)phenylmethyl-1,2,5,10-tetrahydropyridazino[4,5-b]quinoline-1,10-dione] it was 41 nM. As for `O=c1c2ccc(Cl)cc2[nH]c2c(O)nn(Cc3ccc(I)cc3)c(=O)c12` [Ex. 20, 7-Chloro-4-hydroxy-2-(4-iodophenylmethyl)-1,2,5,10-tetrahydropyridazino[4,5-b]quinoline-1,10-dione], in test [1] (setting [4]), the Ki is 199 nM.

In test [1] (setting [4]), `O=C(Nc1cccc(Cn2nc(O)c3[nH]c4cc(Cl)ccc4c(=O)c3c2=O)c1)NC1CCCCC1` [Ex. 19, 7-chloro-4-hydroxy-2-(3-cyclohexylaminocarboxamide)phenylmethyl-1,2,5,10-tetrahydropyridazino[4,5-b]quinoline-1,10-dione] came in with an inhibition constant Ki of 33.3 nM. The same measure, in the same setting: in the case of `COCCN(CCOC)C(=O)c1cccc(Cn2nc(O)c3[nH]c4cc(Cl)ccc4c(=O)c3c2=O)c1` [Ex. 27, 7-Chloro-4-hydroxy-2-[3-(di-(2-methoxy)ethyl)aminocarbonylbenzyl]-1,2,5,10-tetrahydropyridazino[4,5-b]quinoline-1,10-dione] it was 191 nM. Regarding `O=C(NCc1ccco1)c1ccc(Cn2nc(O)c3[nH]c4cc(Cl)ccc4c(=O)c3c2=O)cc1` [Ex. 3, 7-Chloro-4hydroxy-2-(4-(furan-2-ylmethyl)aminocarbonyl)-benzyl-1,2,5,10-tetrahydropyridazino[4,5-b]quinoline-1,10-dione], in test [1], the Ki is 153 nM. In addition, in test [2], the “Test C (% Inh.): percent decrease in hyperalgesia” value is reported as 96% and the “Test C MED (minimum effective dose)” value turned out to be 30 mg/kg/day. Besides, the “Test B First phase Dose (% Inh.): % inhibition of nociceptive response” value in test [3] (first phase (0-5 min)) was 200 (33%). Also, in test [3] (second phase (20-35 min)), the “Test B Second phase Dose (% Inh.): % inhibition of nociceptive response” value is 200 (−18%). `COCCNC(=O)c1ccc(Cn2nc(O)c3[nH]c4cc(Cl)ccc4c(=O)c3c2=O)cc1` [Ex. 23]: the Ki in test [1] (setting [4]) was 141 nM. Regarding `O=C(c1ccc(Cn2nc(O)c3[nH]c4cc(Cl)ccc4c(=O)c3c2=O)cc1)N1CCOCC1` [Ex. 29, 7-Chloro-4-hydroxy-2-[4-(morpholine-4-carbonyl)-benzyl]-1,2,5,10-tetrahydropyridazino[4,5-b]quinoline-1,10-dione], affinity in test [1] (setting [4]) was put at a Ki of 88 nM. With `O=c1c2ccc(Cl)cc2[nH]c2c(O)nn(Cc3ccc4nc[nH]c4c3)c(=O)c12` [Ex. 5, 7-Chloro-4-hydroxy-2-(benzimidazol-5-ylmethyl)-1,2,5,10-tetrahydropyridazino[4,5-b]quinoline-1,10-dione methanesulfonate], affinity in test [1] (setting [4]) was put at a Ki of 117 nM.

In turn, `O=C(Nc1cccc(Cn2nc(O)c3[nH]c4cc(Cl)ccc4c(=O)c3c2=O)c1)N1CCCC1` [Ex. 15, 7-Chloro-4-hydroxy-2-(3-pyrrolidinylcarboxamide)phenylmethyl-1,2,5,10-tetrahydropyridazino[4,5-b]quinoline-1,10-dione] displayed a Ki in test [1] (setting [4]) of 15.6 nM.

The Ki is the equilibrium dissociation constant of an inhibitor or competing ligand from its target. Read a high Ki as a looser hold on the target.
